Key:
[1] = tested on: PC12 cells; test: Flow cytometry detection of apoptotic PC12 cells (propidium iodide, sub-G1); format: cell-based
Experimental: Media were DMEM(HG) containing 10% calf serum.
2×10^6 cells were collected at different time respectively after PC12 were treated in the same method. Cell precipitation was washed twice with PBR, followed by adding ice ethanol, and the resulting solution was blown to disperse the cells into single, fixed for 2 hours at 4° C. Before staining, the solution was centrifuged at 300 rpm for 10 minutes, and the supernatant was discarded, then the precipitation was washed twice with PBR to remove ethanol substantially. Into the cell precipitation was added a staining solution (containing 0.1% TritonX-100, 0.1 mM EDTApH7.4, 0.01 mg/ml RNase A, 50 μg/ml propidium iodide). Cell fluorescence was detected with flow cytometry after the cells in staining solution for 30 minutes at 4° C. away from light, and percentage and cycle of apoptotic cells were calculated by analyzing DNA content. The results were obtained by flow cytometry laboratory of Institute of Biochemistry and Cell Biology, CAS.
As illustrated from the above results, it may be seen that caspase-3 inhibitors could protect PC12 markedly and resist apoptosis of PC12 mediated by neurotoxicity of Aβ of Aβ25-35, and they have no toxicity in low concentration themselves.

[2] = tested on: PC12 cells; test: Morphological comparison of PC12 cells treated with Aβ and caspase-3 inhibitors; details: inhibitor alone; 28 μM chen-1, 200 nM Ac-Asp-Glu-Val-Asp-aldehyde; phase contrast microscope, 72 hours
Experimental: Culture of cells: PC 12 cells were obtained from XiCan Tang of Institute of Material Medica, CAS. Media were DMEM(HG) containing 10% calf serum. PC12 were incubated in an incubator with constant temperature with 5% carbon dioxide at 37° C. The cells were inoculated in Petri dishes and 96-well plates in the amount […], the compounds of the present invention were added into after 12 hours, and […] of apoptosis inducer, Aβ25-35, was added after 24 hours.

[3] = Aβ25-35 and inhibitor (2 μM Ac-DEVD-CHO, 28 μM Chen-1) in the medium at the same time
[4] = only caspase-3 inhibitor added, no Aβ25-35, after 72 hours

Row | Structure (SMILES) | percentage of apoptotic cells [1, 3] [%] | percentage of apoptotic cells [1, 4] [%] | toxic effect on PC12 cells (morphology) [2]
1 | O=C1NC(=O)c2ccccc2C1=O [Chen-1] | 4.09 | 2.15 | no toxic effect
2 | CC(=O)N[C@@H](CC(=O)O)C(=O)N[C@@H](CCC(=O)O)C(=O)N[C@H](C(=O)N[C@H](C=O)CC(=O)O)C(C)C [Ac-DEVD-CHO, Ac-Asp-Glu-Val-Asp-aldehyde] | 4.01 | 2.27 | no toxic effect
